Values quoted from earlier work, collected in US7958848B2, “Method for artificial breeding of farmed sturgeon” (priority 2009, dated 2011).

Tested on: goldfish
Details: 1-5 mg/kg body weight in combination with pituitary gland

## O=c1[nH]c2ccccc2n1CCCN1CCC(n2c(=O)[nH]c3cc(Cl)ccc32)CC1 [Domperidone]
  Induction of spawning and gonadal development: induced spawning and gonadal development
